Measurements as given in US20240019450A1, “FLUORESCENT SENSORS” (THE UNIVERSITY OF SYDNEY, priority 2020, published 2024).

test: Fluorescence spectroscopy of the sensors (excitation and emission); format: physicochemical
Description: Fluorescence spectroscopy was performed on a bench top Perkin-Elmer Enspire Multimode Plate Reader. […] 5 replicates of each sensor-metal or sensor-complex solution were used. […] Fluorescence responses to analytes were determined using integrated emission intensity, and for each sensor a control well containing no analyte was included to normalise the response for analysis.
The sensors were tested using the procedure described in Example 4, and the obtained data was analysed using LDA. […] Sensors S1-S9 were used in subsequent experiments.

Row | Compound | excitation wavelength (maximum excitation wavelength of the sensor) [nm]
1 | O=C1c2ccccc2C2(c3ccc(O)cc3Oc3cc(O)ccc32)N1NC(=S)S [S1] | 480
2 | Cc1cc(=O)oc2c(CN(CC(=O)O)CC(=O)O)c(O)ccc12 [S5] | 380
3 | CCN(CC)c1ccc2c(c1)Oc1cc(N(CC)CC)ccc1C21c2ccccc2C(=O)N1OCc1cn(Cc2ccccc2)nn1 [S7] | 445
4 | O=[N+]([O-])c1ccc2c(/N=N/c3ccc4ccccc4c3O)c(O)cc(S(=O)(=O)[O-])c2c1.[Na+] [S8] | 280
5 | O=S(=O)([O-])c1cc(O)c(N=Nc2c(O)ccc3ccccc23)c2ccccc12.[Na+] [S9] | 280

test: not given

Row | Compound | melting point [°C]
6 | S=C(S)n1ncc2ccccc21 [formula X, 1H-indazole-1-carbodithioic acid] | 220
7 | S=C(S)C1=C(NCc2ccccc2)CCC1 [formula XIV, 2-(benzylamino)cyclopent-1-enecarbodithioic acid] | 100
